Patent US4542137A, “Alkylaminodesoxy-1.4;3.6-dianhydrohexitol nitrates substituted by purine bases and pharmaceutical compositions” (priority 1980, dated 1985)
pIC50: −log10 of the molar value. Like-named read-outs stand apart in the source and are kept apart here.

What was measured:
[1] = tested on: isolated guinea pig hearts; experiment: coronary flowthrough-increasing effectiveness on isolated guinea pig hearts according to Langendorff; details: Cavia porcellus, 25 μg/ml in tyrode solution, Langendorff heart; for activation at 25 µg/mL: read-out: flowthrough (coronary), percentage change in comparison with the initial value
Procedure: After achieving the stationary state in the 30th minute, the hearts were each infused with 50 ml. tyrode solution with a content of test substance of, in each case, 25 μg./ml. Each test substance was tested on 3-6 hearts.
In each case, there was measured the inotropism, the flowthrough and the frequency, whereby the values given in Table I are average values of the percentage changes in comparison with the starting values.

[2] = examination of acute toxicity, i.v., female NMRI-albino mice; type: in vivo; details: mouse, in vivo, iv, mice, 24 hours; read-out: Evaluated LD50-range
Procedure: (§1) . The compounds were injected to at least 3 animals per dose. If no animal had yet been died following to the highest dose which was administered, no more doses of substances were tested. In case of doubt, the examination was repeated with at least 3 more animals applying the same dose.
(§2) The rate of death within 24 hours after administration was observed.
(§3) In table IX, the determined rates of death as well as the LD50 -ranges evaluated therefrom are shown.

female NMRI-albino mice = experiment: as above; type: in vivo; details: within 24 hours; for Frequency of death with an intravenous dose of 100 mg/kg: 100 mg/kg i.v.; for Frequency of death with an intravenous dose of 200 mg/kg: 200 mg/kg i.v.; for Frequency of death with an intravenous dose of 50 mg/kg: 50 mg/kg i.v.
Procedure: as §1, §2, §3

[3] = tested on: isolated rat aorta preparations; experiment: spasmolytic effectiveness on isolated rat aorta preparations (noradrenaline- and potassium chloride-induced contractions)
[4] = read-out: frequency, percentage change in comparison with the initial value
[5] = read-out: inotropism, percentage change in comparison with the initial value
[6] = read-out: ED50 for spasmolytic action, Noradrenaline spasm (50% inhibition)
[7] = read-out: ED50 for spasmolytic action, potassium chloride spasm (50% inhibition)

| Structure (SMILES) | activation at 25 µg/mL [1] [%] | inhibition at 25 µg/mL [1, 4] [%] | inhibition at 25 µg/mL [1, 5] [%] | LD50 at 24 h [2] [mg/kg] | Frequency of death with an intravenous dose of 100 mg/kg (female NMRI-albino mice) | Frequency of death with an intravenous dose of 200 mg/kg (female NMRI-albino mice) | pIC50 [3, 6] | pIC50 [3, 7] | Frequency of death with an intravenous dose of 50 mg/kg (female NMRI-albino mice) | percent change from initial value at 25 µg/mL [1, 4] [%] |
| --- | --- | --- | --- | --- | --- | --- | --- | --- | --- | --- |
| Cn1c(=O)c2c(ncn2CCCCCN[C@H]2CO[C@H]3[C@@H]2OC[C@@H]3O[N+](=O)[O-])n(C)c1=O [Example 4, 5-(5-Theophyllin-7-ylpentyl)-amino-5-desoxy-1.4;3.6-dianhydro-L-iditol 2-nitrate] | 55.7 | 8.41 | 5.44 | 100 to 200 | 0/10 | 10/10 | 5.57 | 5.42 | – | – |
| Cn1c(=O)c2c(ncn2CCN[C@H]2CO[C@H]3[C@@H]2OC[C@@H]3O[N+](=O)[O-])n(C)c1=O [Example 2, 5-(2-Theophyllin-7-ylethyl)-amino-5-desoxy-1.4;3.6-dianhydro-L-iditol 2-nitrate] | 34.7 | -3.5 | 4.6 | ≥ 200 | 0/3 | 1/3 | 5.38 | 4.52 | – | – |
| Cn1c(=O)c2c(ncn2CCCCN[C@H]2CO[C@H]3[C@@H]2OC[C@@H]3O[N+](=O)[O-])n(C)c1=O [Example 3, 5-(4-Theophyllin-7-ylbutyl)-amino-5-desoxy-1.4;3.6-dianhydro-L-iditol 2-nitrate] | 36.4 | 4.8 | 3.82 | > 200 | – | 0/6 | 5.59 | 5.44 | – | – |
| Cn1c(=O)c2c(ncn2CCCCCCN[C@H]2CO[C@H]3[C@@H]2OC[C@@H]3O[N+](=O)[O-])n(C)c1=O [Example 5, 5-(6-Theophyllin-7-ylhexyl)-amino-5-desoxy-1.4;3.6-dianhydro-L-iditol 2-nitrate] | 61.9 | 11.1 | 43.3 | ≥ 100 | 4/10 | 10/10 | 6.44 | 5.62 | 0/10 | – |
| Cn1c(=O)c2c(ncn2CCCN[C@@H]2CO[C@H]3[C@@H]2OC[C@H]3O[N+](=O)[O-])n(C)c1=O [Example 12d, 5-(3-Theophyllin-7-ylpropyl)-amino-5-desoxy-1.4;3.6-dianhydro-D-mannitol 2-nitrate] | – | – | – | > 200 | – | 0/6 | – | – | – | – |
| Nc1ncnc2c1ncn2CCCN[C@H]1CO[C@H]2[C@@H]1OC[C@@H]2O[N+](=O)[O-] [Example 14, 5-(3-Adenin-9-ylpropyl)-amino-5-desoxy-1.4;3.6-dianhydro-L-iditol 2-nitrate] | 55.8 | – | -3.8 | – | – | – | 5.85 | 4.36 | – | 0 |
| Nc1ncnc2c1ncn2CCCCCN[C@H]1CO[C@H]2[C@@H]1OC[C@@H]2O[N+](=O)[O-] [Example 16, 5-(5-Adenin-9-ylpentyl)-amino-5-desoxy-1.4;3.6-dianhydro-L-iditol 2-nitrate] | 22.5 | 6.8 | -6.5 | 100 to 200 | 0/10 | 10/10 | – | – | – | – |
| CC(C)Cn1c(=O)n(C)c(=O)c2c1ncn2CCCN[C@H]1CO[C@H]2[C@@H]1OC[C@@H]2O[N+](=O)[O-] [Example 8c, 5-[3-(3-Isobutyl-1-methylxanthin-7-yl)-propylamino]-5-desoxy-1.4;3.6-dianhydro-L-iditol 2-nitrate] | – | – | – | 100 to 200 | 0/3 | 11/13 | – | – | – | – |
| Nc1ncnc2c1ncn2CCN[C@H]1CO[C@H]2[C@@H]1OC[C@@H]2O[N+](=O)[O-] [Example 13, 5-(2-Adenin-9-ylethyl)-amino-5-desoxy-1.4;3.6-dianhydro-L-iditol 2-nitrate] | 12.2 | – | -2.3 | > 200 | – | 0/6 | – | – | – | 0 |
| Nc1ncnc2c1ncn2CCCCN[C@H]1CO[C@H]2[C@@H]1OC[C@@H]2O[N+](=O)[O-] [Example 15, 5-(4-Adenin-9-ylbutyl)-amino-5-desoxy-1.4;3.6-dianhydro-L-iditol 2-nitrate] | 47.1 | 3.45 | -3.85 | < 50 | 3/3 | 3/3 | – | – | 3/3 | – |
| Nc1ncnc2c1ncn2CCCCCCN[C@H]1CO[C@H]2[C@@H]1OC[C@@H]2O[N+](=O)[O-] [Example 17, 5-(6-Adenin-9-ylhexyl)-amino-5-desoxy-1.4;3.6-dianhydro-L-iditol 2-nitrate] | 60.6 | 3.6 | 11.5 | 50 to 100 | 2/3 | 3/3 | – | – | 0/10 | – |
| Cn1c(=O)c2c(ncn2CCCN[C@@H]2CO[C@H]3[C@@H]2OC[C@@H]3O[N+](=O)[O-])n(C)c1=O [Example 10c, 5-(3-Theophyllin-7-ylpropyl)-amino-5-desoxy-1.4;3.6-dianhydro-D-glucitol 2-nitrate] | 13 | 5.6 | 6.4 | > 200 | – | 0/6 | – | – | – | – |
| Cn1cnc2c1c(=O)n(CCCN[C@H]1CO[C@H]3[C@@H]1OC[C@@H]3O[N+](=O)[O-])c(=O)n2C [Example 7c, 5-[3-(3,7-Dimethylxanthin-1-yl)-propylamino]-5-desoxy-1.4;3.6-dianhydro-L-iditol 2-nitrate] | 28.9 | – | -10.5 | > 200 | – | 0/6 | – | – | – | 0 |
| Cn1c(=O)c2c(ncn2CCCN[C@H]2CO[C@H]3[C@@H]2OC[C@H]3O[N+](=O)[O-])n(C)c1=O [Example 11d, 2-(3-Theophyllin-7-ylpropyl)-amino-2-desoxy-1.4;3.6-dianhydro-D-glucitol 5-nitrate] | – | – | – | > 200 | – | 0/6 | – | – | – | – |
| Cn1c(=O)c2c(ncn2CC(O)CN[C@H]2CO[C@H]3[C@@H]2OC[C@@H]3O[N+](=O)[O-])n(C)c1=O (stereo partly drawn) [Example 6, 5-(2-Hydroxy-3-theophyllin-7-ylpropyl)-amino-5-desoxy-1.4;3.6-dianhydro-L-iditol 2-nitrate] | 53.3 | -3.39 | -4.5 | – | – | – | 5.95 | 4.74 | – | – |
